Source: BindingDB's records for doi:10.1124/jpet.102.047092 (Case Western Reserve University, 2003)
Values joined by “and” are separate entries in the source; they are usually repeats but may differ in a detail not shown here. Equal entries are not always repeated.

What was measured:
[1] = target: Kappa-type opioid receptor (Cavia porcellus, UniProt P41144)
[2] = target: 5-hydroxytryptamine receptor 2A (Rattus norvegicus, UniProt P14842)
[3] = target: Sodium-dependent dopamine transporter (Homo sapiens, UniProt Q01959)
[4] = target: T1, 5-hydroxytryptamine receptor 3A (Homo sapiens, UniProt P46098)
T1 sequence (P46098 whole entry): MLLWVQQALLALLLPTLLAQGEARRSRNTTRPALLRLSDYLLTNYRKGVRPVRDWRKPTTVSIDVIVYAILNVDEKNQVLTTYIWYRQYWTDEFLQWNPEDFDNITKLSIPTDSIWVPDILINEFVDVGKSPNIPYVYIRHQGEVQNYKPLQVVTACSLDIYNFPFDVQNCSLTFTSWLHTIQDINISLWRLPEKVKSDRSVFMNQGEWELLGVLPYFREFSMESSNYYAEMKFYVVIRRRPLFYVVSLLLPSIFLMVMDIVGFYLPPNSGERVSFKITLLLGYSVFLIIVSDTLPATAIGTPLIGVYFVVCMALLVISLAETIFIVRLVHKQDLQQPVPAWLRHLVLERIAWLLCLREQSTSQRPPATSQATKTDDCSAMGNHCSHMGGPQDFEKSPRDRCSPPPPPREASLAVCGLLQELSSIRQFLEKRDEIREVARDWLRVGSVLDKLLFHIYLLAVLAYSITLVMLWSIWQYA

[5] = target: T2, Alpha-1A adrenergic receptor (Homo sapiens, UniProt P35348)
T2 sequence (P35348 whole entry): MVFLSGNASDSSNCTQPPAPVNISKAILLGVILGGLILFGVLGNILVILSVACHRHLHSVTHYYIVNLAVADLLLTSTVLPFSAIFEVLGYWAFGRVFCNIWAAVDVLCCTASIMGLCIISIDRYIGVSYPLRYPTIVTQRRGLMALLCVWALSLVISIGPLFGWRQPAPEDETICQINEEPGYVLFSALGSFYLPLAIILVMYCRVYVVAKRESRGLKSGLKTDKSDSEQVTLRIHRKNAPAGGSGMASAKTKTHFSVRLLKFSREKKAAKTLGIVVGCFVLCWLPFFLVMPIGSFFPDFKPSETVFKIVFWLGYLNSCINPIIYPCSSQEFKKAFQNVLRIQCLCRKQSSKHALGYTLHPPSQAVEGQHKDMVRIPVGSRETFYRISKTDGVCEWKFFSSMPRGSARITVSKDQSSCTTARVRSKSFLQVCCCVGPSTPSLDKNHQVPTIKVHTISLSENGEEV

[6] = target: T3, 5-hydroxytryptamine receptor 2C (Rattus norvegicus, UniProt P08909)
T3 sequence (P08909 whole entry): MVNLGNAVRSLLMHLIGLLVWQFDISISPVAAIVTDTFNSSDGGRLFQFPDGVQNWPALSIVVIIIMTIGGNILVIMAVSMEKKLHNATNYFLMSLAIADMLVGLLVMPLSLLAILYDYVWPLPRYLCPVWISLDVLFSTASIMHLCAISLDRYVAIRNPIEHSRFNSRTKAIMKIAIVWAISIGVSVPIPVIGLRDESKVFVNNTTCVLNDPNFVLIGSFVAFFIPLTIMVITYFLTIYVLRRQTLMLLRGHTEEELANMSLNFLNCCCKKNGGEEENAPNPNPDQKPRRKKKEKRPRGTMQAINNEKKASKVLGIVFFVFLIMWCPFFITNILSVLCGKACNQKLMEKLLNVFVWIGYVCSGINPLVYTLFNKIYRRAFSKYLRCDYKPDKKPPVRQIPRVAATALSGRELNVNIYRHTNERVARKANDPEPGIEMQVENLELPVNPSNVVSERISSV

[7] = target: T4, Alpha-1B adrenergic receptor (Homo sapiens, UniProt P35368)
T4 sequence (P35368 whole entry): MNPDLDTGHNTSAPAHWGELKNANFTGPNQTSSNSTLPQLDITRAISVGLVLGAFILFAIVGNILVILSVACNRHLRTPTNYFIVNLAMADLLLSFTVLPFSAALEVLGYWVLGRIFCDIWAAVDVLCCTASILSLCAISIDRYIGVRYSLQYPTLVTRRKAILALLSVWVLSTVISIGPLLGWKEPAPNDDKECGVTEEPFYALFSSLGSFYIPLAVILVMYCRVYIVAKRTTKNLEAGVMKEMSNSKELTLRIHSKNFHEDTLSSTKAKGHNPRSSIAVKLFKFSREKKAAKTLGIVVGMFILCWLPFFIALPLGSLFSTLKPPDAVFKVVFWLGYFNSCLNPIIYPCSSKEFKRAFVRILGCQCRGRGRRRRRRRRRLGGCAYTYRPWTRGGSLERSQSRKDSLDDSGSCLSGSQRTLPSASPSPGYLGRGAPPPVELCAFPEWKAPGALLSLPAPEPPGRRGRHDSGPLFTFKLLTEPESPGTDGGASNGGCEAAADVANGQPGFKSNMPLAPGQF

[8] = target: Glutamate receptor ionotropic, NMDA 1 (Rattus norvegicus, UniProt P35439)
[9] = target: Beta-2 adrenergic receptor (Rattus norvegicus, UniProt P10608)
[10] = target: T5, Alpha-2A adrenergic receptor (Homo sapiens, UniProt P08913)
T5 sequence (P08913 whole entry): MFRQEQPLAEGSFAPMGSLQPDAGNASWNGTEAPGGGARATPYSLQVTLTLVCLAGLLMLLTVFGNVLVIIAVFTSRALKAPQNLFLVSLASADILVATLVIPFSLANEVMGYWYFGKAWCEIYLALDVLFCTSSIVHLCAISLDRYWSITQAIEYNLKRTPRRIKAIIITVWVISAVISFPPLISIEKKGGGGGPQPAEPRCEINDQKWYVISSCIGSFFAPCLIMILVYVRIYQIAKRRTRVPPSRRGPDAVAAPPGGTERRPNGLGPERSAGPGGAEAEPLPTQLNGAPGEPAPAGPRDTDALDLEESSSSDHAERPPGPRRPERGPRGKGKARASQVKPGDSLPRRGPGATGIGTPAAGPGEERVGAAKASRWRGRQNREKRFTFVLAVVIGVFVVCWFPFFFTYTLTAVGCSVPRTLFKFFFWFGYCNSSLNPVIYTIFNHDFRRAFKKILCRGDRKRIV

Chain of Beta-2 adrenergic receptor (P10608 whole entry): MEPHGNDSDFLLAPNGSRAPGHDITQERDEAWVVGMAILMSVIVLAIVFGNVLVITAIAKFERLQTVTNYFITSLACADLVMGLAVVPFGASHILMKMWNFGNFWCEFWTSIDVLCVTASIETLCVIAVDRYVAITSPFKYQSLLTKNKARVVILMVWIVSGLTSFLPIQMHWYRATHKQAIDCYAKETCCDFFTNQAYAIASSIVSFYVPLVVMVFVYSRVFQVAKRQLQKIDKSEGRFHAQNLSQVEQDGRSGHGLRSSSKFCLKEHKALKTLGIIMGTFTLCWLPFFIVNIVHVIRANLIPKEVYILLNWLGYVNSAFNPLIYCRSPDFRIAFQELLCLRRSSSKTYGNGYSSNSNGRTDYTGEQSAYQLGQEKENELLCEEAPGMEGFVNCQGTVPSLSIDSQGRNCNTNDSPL
Chain of Kappa-type opioid receptor (P41144 whole entry): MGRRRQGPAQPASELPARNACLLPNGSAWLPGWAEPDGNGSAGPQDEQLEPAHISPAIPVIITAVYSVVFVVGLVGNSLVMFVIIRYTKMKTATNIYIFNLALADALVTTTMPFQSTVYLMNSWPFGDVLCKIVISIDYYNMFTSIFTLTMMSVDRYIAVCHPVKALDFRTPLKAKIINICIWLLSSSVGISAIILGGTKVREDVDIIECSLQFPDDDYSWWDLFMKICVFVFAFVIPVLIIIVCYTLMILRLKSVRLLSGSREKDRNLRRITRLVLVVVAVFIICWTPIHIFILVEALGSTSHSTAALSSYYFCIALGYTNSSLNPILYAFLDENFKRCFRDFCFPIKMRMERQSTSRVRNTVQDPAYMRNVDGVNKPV
Chain of Sodium-dependent dopamine transporter (Q01959 whole entry): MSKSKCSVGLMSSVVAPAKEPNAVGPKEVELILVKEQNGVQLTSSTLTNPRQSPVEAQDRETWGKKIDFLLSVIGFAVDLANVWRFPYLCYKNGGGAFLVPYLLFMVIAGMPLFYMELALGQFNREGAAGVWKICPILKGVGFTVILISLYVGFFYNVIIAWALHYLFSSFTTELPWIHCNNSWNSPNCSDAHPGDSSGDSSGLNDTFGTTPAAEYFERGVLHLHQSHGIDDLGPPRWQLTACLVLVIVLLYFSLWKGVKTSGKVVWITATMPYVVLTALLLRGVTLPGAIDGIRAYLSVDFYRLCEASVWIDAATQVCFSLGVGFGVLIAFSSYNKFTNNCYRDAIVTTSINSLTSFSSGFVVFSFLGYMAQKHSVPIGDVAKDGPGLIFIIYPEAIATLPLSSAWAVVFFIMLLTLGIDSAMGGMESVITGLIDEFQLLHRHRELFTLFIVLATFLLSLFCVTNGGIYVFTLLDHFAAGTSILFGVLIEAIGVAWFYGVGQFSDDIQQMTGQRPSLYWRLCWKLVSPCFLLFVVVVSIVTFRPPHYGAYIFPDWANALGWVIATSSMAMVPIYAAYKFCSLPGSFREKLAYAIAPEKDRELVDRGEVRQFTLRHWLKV
Chain of 5-hydroxytryptamine receptor 2A (P14842 whole entry): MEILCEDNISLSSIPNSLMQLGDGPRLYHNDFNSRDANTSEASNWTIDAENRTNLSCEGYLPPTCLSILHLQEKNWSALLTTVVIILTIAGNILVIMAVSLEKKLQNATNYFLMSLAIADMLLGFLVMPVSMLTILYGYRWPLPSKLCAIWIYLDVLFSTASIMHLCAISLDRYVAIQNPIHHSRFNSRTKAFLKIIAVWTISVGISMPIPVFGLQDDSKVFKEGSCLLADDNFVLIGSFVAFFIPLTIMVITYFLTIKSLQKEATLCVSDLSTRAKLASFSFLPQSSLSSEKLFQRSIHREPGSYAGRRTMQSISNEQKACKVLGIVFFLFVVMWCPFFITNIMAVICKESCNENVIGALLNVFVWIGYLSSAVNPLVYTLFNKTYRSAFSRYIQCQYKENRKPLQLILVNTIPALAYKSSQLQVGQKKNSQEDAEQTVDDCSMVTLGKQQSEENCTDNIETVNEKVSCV

| SMILES | Ki [1] [µM] | Ki [2] [µM] | Ki [3] [µM] | Ki [4] [µM] | Ki [5] [µM] | Ki [6] [µM] | Ki [7] [µM] | Ki [8] | Ki [9] [µM] | Ki [10] [µM] |
| --- | --- | --- | --- | --- | --- | --- | --- | --- | --- | --- |
| N[C@@H](CCS)C(=O)O (racemic) [CAS_778] | > 10 | > 10 | > 10 | > 10 | > 10 | > 10 | > 10 | > 10 µM | > 10 | > 10 |
| N[C@@H](CCS(=O)O)C(=O)O [L-homocysteine sulfinic acid] | > 10 | > 10 | > 10 | > 10 | > 10 | > 10 | > 10 | > 10 µM | > 10 | > 10 |
| NC(CS(=O)O)C(=O)O (stereo not given) [CAS_109] | > 10 | > 10 | > 10 | > 10 | > 10 | > 10 | > 10 | > 10 µM | > 10 | > 10 |
| CSCC[C@@H](N)C(=O)O [CAS_6137] | > 10 | > 10 | > 10 | > 10 | > 10 | > 10 | > 10 | > 10 µM | > 10 | > 10 |
| N[C@@H](CS)C(=O)O [CAS_5862] | > 10 | > 10 | > 10 | > 10 | > 10 | > 10 | > 10 | > 10 µM | > 10 | > 10 |
| N[C@@H](CCS(=O)(=O)O)C(=O)O (racemic) | > 10 | > 10 | > 10 | > 10 | > 10 | > 10 | > 10 | > 10 µM | > 10 | > 10 |
| NC(CSSCC(N)C(=O)O)C(=O)O (stereo not given) [CAS_595] | > 10 | > 10 | > 10 | > 10 | > 10 | > 10 | > 10 | > 10 µM and 3.24 µM | > 10 | > 10 |
| N[C@@H]1CCSC1=O [D-homocysteine thiolactone] | > 10 | > 10 | > 10 | > 10 | > 10 | > 10 | > 10 | > 10 µM | > 10 | > 10 |
| N[C@H](CCS(=O)(=O)O)C(=O)O [D-homocysteic acid] | > 10 | > 10 | > 10 | > 10 | > 10 | > 10 | > 10 | > 10 µM | > 10 | > 10 |
| N[C@H](CS(=O)(=O)O)C(=O)O [L-cysteic acid] | > 10 | > 10 | > 10 | > 10 | > 10 | > 10 | > 10 | > 10 µM | > 10 | > 10 |
| N[C@H]1CCSC1=O [NSC_134505] | > 10 | > 10 | > 10 | > 10 | > 10 | > 10 | > 10 | > 10 µM | > 10 | > 10 |
| N[C@H](CCS(=O)O)C(=O)O [D-homocysteine sulfinic acid] | > 10 | > 10 | > 10 | > 10 | > 10 | > 10 | > 10 | > 10 µM | > 10 | > 10 |
